Measured values from patent US11185542B2, “Uses of dopamine beta-hydroxylase (DBH) inhibitors and serotonin receptor (5-HT) antagonists for the treatment of cancer” (Jiangsu Yahong Meditech Co., Ltd., priority 2016, dated 2021).
pIC50: −log10 of the molar value. Where “and” joins values, the source holds several entries; their conditions need not be identical. Identical values can stand only once.

Assays:
[1] = test system: CT-26 murine colon cancer xenograft; experiment: In vivo tumor growth, CT-26 murine colon cancer xenograft model (Example 6); parameters: species or system Mouse (Mus Musculus); conditions: Nepicastat 50 mg/kg, QD, oral
Procedure: (§1) Experiments using the murine H22, CT-26 and EMT-6 xenograft models were performed as described below.
(§2) Cells were cultured in RPMI-1640 medium supplemented with 10% FBS at 37° C. in an atmosphere of 5% CO2 in air. The tumor cells were routinely subcultured three times weekly. The cells that grew in an exponential growth phase were harvested and counted for tumor inoculation.
(§3) Mice (female, 6-8 weeks old) were inoculated subcutaneously at the right flank with the tumor cells (H22, EMT-6, or CT-26) in 0.1 mL PBS for tumor development. When the tumor volume reached approximately 60-80 mm^3, the mice were grouped randomly according to the animal body weight and tumor volume. Each group had 5-8 tumor-bearing mice.
(§4) The major endpoint was to determine if tumor growth could be delayed or mice could be cured. Tumor volume was measured three times weekly in two dimensions using a caliper, and the volume was expressed in mm^3 using the formula: V=0.5 a×b^2, where a and b are the long and short diameters of the tumor, respectively. The T/C value (in percent) was an indication of antitumor effectiveness, where T and C were the mean volume of the treated and control groups, respectively, on a given day. The T-C value was calculated according to TV. T-C was calculated with T as the median time (in days) required for the treatment group tumors to reach a predetermined size (e.g., TV as 1000 mm^3), and C as the median time (in days) for the control group tumors to reach the same size. The body weights were measured and recorded at the same time to observe the toxicity of the compounds. The animals were sacrificed at the termination of the study.
(§5) Summary statistics, including mean and the standard error of the mean (SEM), are provided for the tumor volume of each group at each time point. A two-way analysis of variance (ANOVA) was performed to compare body weight, tumor volume and tumor volume change. A one-way ANOVA was performed to compare tumor weight. All data were analyzed using GraphPad Prism 5. p<0.05 was considered to be statistically significant.
(§6) Nepicastat was also tested for in vivo tumor growth inhibition in CT-26 murine colon cancer and EMT-6 murine breast cancer xenograft models. Nepicastat was administered orally.

[2] = test system: EMT-6 murine breast cancer xenograft; experiment: In vivo tumor growth, EMT-6 murine breast cancer xenograft model (Example 6); parameters: species or system Mouse (Mus Musculus); conditions: Nepicastat 50 mg/kg, QD, oral
Procedure: as §1, §2, §3, §4, §5, §6

[3] = clinical dosage of nepicastat 160 mg/day; read-out: plasma maximal concentration (Cmax); cited from earlier work
[4] = test system: H22 murine hepatic cancer xenograft; experiment: In vivo tumor growth, H22 murine hepatic cancer xenograft model, compared with anti-PD-1 mAb (Example 5); parameters: species or system Mouse (Mus Musculus); conditions: p.o.; for Tumor Volume (mm^3): QD x 20 days; for T/C (%) / TGI (%) tumor growth inhibition: QD
Procedure: as §1, §2, §3, §4, §5
The anti-cancer activity of nepicastat, etamicastat and anti-PD-1 monoclonal antibody (mAb) was evaluated in a H22 murine hepatic cancer xenograft model according to the experimental procedure described in Example 2.

[5] = test system: H22 murine hepatocarcinoma cell line; experiment: In vitro cell proliferation assay (CellTiter-Glo) in H22 murine hepatocarcinoma cell line; format: cell-based
Procedure: Methods: • (1) Cells were cultured in RPMI-1640 medium supplemented with 10% FBS, 100 U/ml penicillin, and […] streptomycin at 37° C. and 5% CO2 atmosphere. […] The anti-proliferative activity of amperozide, nepicastat, and paclitaxel was tested in the H22 murine hepatocarcinoma cell line according to the experimental procedure described in Example 1.

[6] = test system: H22 murine hepatic cancer xenograft; experiment: In vivo tumor growth, H22 murine hepatic cancer xenograft model (Example 4); parameters: species or system Mouse (Mus Musculus)
Procedure: as §1, §2, §3, §4, §5
The anti-cancer activity of amperozide and nepicastat was evaluated in a H22 murine hepatic cancer xenograft model according to the experimental procedure described in Example 2. Anti-cancer activity was evaluated by measuring changes in tumor volume.

[7] = Nepicastat 48 mg/kg, day 19, listed as nepicastat

pIC50 ([5]; Mus musculus, calculated from FIG. 1, read-out: IC50 in H22 murine hepatocarcinoma cells proliferation): 4.28
SMILES: NCc1c[nH]c(=S)n1[C@H]1CCc2c(F)cc(F)cc2C1 [Nepicastat, nepicastat]
T/C (%) ([1]; CT-26 model, End): 65.70% | TGI (%) tumor growth inhibition ([1]; CT-26 model, End): 34.30% | Tumor Volume (mm^3) in CT-26 Model ([1]; day 7 (Initiation)): 59.35 ± 1.65 mm^3 and 59.35 ± 3.69 mm^3 | Tumor Volume (mm^3) in CT-26 Model ([1]; day 10): 86.00 ± 11.91 mm^3 | Tumor Volume (mm^3) in CT-26 Model ([1]; day 14): 314.14 ± 33.19 mm^3 | Tumor Volume (mm^3) in CT-26 Model ([1]; day 17): 501.46 ± 50.04 mm^3 | Tumor Volume (mm^3) in CT-26 Model ([1]; day 21 (End)): 1087.75 ± 163.63 mm^3 | T/C (%) ([2]; EMT-6 model, End): 76.91% | TGI (%) tumor growth inhibition ([2]; EMT-6 model, End): 23.09% | Tumor Volume (mm^3) in EMT-6 Model ([2]; day 5 (Initiation)): 61.55 ± 1.37 mm^3 and 61.55 ± 3.06 mm^3 | Tumor Volume (mm^3) in EMT-6 Model ([2]; day 8): 110.11 ± 2.13 mm^3 | Tumor Volume (mm^3) in EMT-6 Model ([2]; day 12): 229.32 ± 21.67 mm^3 | Tumor Volume (mm^3) in EMT-6 Model ([2]; day 15): 385.24 ± 66.33 mm^3 | Tumor Volume (mm^3) in EMT-6 Model ([2]; day 19 (End)): 697.23 ± 35.90 mm^3 | Cmax [3]: ~200 nM | Tumor Volume (mm^3) ([4]; Nepicastat 50 mg/kg, day 3): 56.45 ± 4.42 mm^3 | Tumor Volume (mm^3) ([4]; Nepicastat 50 mg/kg, day 6): 107.64 ± 2.13 mm^3 | Tumor Volume (mm^3) ([4]; Nepicastat 50 mg/kg, day 9): 212.98 ± 15.54 mm^3 | Tumor Volume (mm^3) ([4]; Nepicastat 50 mg/kg, day 13): 369.64 ± 18.63 mm^3 | Tumor Volume (mm^3) ([4]; Nepicastat 50 mg/kg, day 16): 552.37 ± 34.69 mm^3 | Tumor Volume (mm^3) ([4]; Nepicastat 50 mg/kg, day 19): 677.68 ± 29.38 mm^3 | Tumor Volume (mm^3) ([4]; Nepicastat 50 mg/kg, day 22): 880.28 ± 33.41 mm^3 | Tumor Volume (mm^3) ([4]; Nepicastat 50 mg/kg, day 22, listed as nepicastat): 880.28 mm^3 | T/C (%) ([4]; Nepicastat 50 mg/kg, day 22): 51.21% | TGI (%) tumor growth inhibition ([4]; Nepicastat 50 mg/kg, day 22): 48.79% | Tumor Volume (mm^3) ([4]; Nepicastat 100 mg/kg, day 3): 56.41 ± 3.96 mm^3 | Tumor Volume (mm^3) ([4]; Nepicastat 100 mg/kg, day 6): 120.60 ± 12.92 mm^3 | Tumor Volume (mm^3) ([4]; Nepicastat 100 mg/kg, day 9): 238.00 ± 22.62 mm^3 | Tumor Volume (mm^3) ([4]; Nepicastat 100 mg/kg, day 13): 384.72 ± 54.05 mm^3 | Tumor Volume (mm^3) ([4]; Nepicastat 100 mg/kg, day 16): 658.54 ± 71.96 mm^3 | Tumor Volume (mm^3) ([4]; Nepicastat 100 mg/kg, day 19): 1049.88 ± 145.91 mm^3 | Tumor Volume (mm^3) ([4]; Nepicastat 100 mg/kg, day 22): 1275.47 ± 154.93 mm^3 | Tumor Volume (mm^3) ([4]; Nepicastat 100 mg/kg, day 22, listed as nepicastat): 1275.47 mm^3 | T/C (%) ([4]; Nepicastat 100 mg/kg, day 22): 74.20% | TGI (%) tumor growth inhibition ([4]; Nepicastat 100 mg/kg, day 22): 25.80% | Cell viability (%) ([5]; 0.1 μM, 72 h, H22 cells): 103.2% | anti-proliferative effect on H22 cell line ([5]; 1 μM and 0.1, in words): did not show any significant anti-proliferative effects | viability at 0.1 µM ([5]; Mus musculus, H22, 72 h, 0.1 μM, 72 h, H22 cells, read-out: Cell viability (%)): 102% | viability at 1 µM ([5]; Mus musculus, H22, 72 h, 1 μM, 72 h, H22 cells, read-out: Cell viability (%)): 94.4% | T-C (days) (Reach 1000 mm^3) ([6]; Nepicastat 16 mg/kg): 1 days | Tumor Volume ([6]; Nepicastat 16 mg/kg, day 5): 80 ± 6 mm^3 | Tumor Volume ([6]; Nepicastat 16 mg/kg, day 7): 140 ± 13 mm^3 | Tumor Volume ([6]; Nepicastat 16 mg/kg, day 9): 260 ± 25 mm^3 | Tumor Volume ([6]; Nepicastat 16 mg/kg, day 12): 542 ± 75 mm^3 | Tumor Volume ([6]; Nepicastat 16 mg/kg, day 14): 982 ± 111 mm^3 | Tumor Volume ([6]; Nepicastat 16 mg/kg, day 16): 1,454 ± 173 mm^3 | T/C (%) ([6]; Nepicastat 16 mg/kg, day 19): 84.1% | TGI (%) tumor growth inhibition ([6]; Nepicastat 16 mg/kg, day 19): 15.9% | Tumor Volume ([6]; Nepicastat 16 mg/kg, day 19): 2,546 ± 306 mm^3 | T-C (days) (Reach 1000 mm^3) ([6]; Nepicastat 48 mg/kg): 2 days | Tumor Volume ([6]; Nepicastat 48 mg/kg, day 5): 80 ± 6 mm^3 | Tumor Volume ([6]; Nepicastat 48 mg/kg, day 7): 146 ± 12 mm^3 | Tumor Volume ([6]; Nepicastat 48 mg/kg, day 9): 249 ± 26 mm^3 | Tumor Volume ([6]; Nepicastat 48 mg/kg, day 12): 493 ± 74 mm^3 | Tumor Volume ([6]; Nepicastat 48 mg/kg, day 14): 795 ± 129 mm^3 | Tumor Volume ([6]; Nepicastat 48 mg/kg, day 16): 1,150 ± 188 mm^3 | T/C (%) ([6]; Nepicastat 48 mg/kg, day 19): 65.8% | TGI (%) tumor growth inhibition ([6]; Nepicastat 48 mg/kg, day 19): 34.2% | Tumor Volume ([6]; Nepicastat 48 mg/kg, day 19): 1,992 ± 349 mm^3 | T/C (%) [6, 7]: 66% | Tumor Volume [6, 7]: 1992 mm^3
